Laboratory results taken from US20110319484A1, “NEUROPROTECTIVE COMPOUNDS” (Parque Tecnologico de Ciencias de la Salud, priority 2009, published 2011).
“Also recorded” adds a separate entry of the source.

Tests used:
HMG-CoA reductase enzyme = target: T1, HMG-CoA reductase enzyme (Homo sapiens, UniProt P04035); assay: HMG-CoA reductase inhibition, spectrophotometric NADPH oxidation at 340 nm; format: biochemical; settings: for IC50: four independent assays, Trimmed Spearman-Karber method; for inhibition power of HMG-CoA reductase, times less than that of atorvastatin: relative to atorvastatin
T1 construct: the oxidation of the NADPH by the catalytic subunit of the HMG-CoA reductase
T1 sequence (P04035 340-888 limits assumed): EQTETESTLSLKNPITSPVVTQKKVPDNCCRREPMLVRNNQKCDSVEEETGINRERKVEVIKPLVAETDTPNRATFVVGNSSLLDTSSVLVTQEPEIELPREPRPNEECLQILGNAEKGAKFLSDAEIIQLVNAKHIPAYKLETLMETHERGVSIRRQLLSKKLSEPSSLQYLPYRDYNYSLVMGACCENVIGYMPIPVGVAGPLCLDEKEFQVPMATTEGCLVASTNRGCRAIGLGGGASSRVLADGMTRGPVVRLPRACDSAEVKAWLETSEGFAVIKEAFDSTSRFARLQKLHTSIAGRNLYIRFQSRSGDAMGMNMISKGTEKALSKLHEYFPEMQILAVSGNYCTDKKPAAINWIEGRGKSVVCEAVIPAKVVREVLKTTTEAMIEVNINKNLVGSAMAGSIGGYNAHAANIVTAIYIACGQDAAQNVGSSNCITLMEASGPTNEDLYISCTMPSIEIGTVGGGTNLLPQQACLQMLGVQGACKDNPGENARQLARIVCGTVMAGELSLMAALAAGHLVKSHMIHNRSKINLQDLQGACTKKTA
From the text: To that end, the degree of inhibition of the HMG-CoA reductase enzyme by the different (1S,3R,7S,8S,8aR)-1,2,3,7,8,8a-hexahydro-3,7-dimethyl-8-[2-[(2R,4R)-tetrahydro-4-hydroxy-6-oxo-2H-pyran-2-yl]ethyl-1-naphthalenyl propanoate derivatives, optionally mono- or di-methylated at the carbon in the alpha position of propanoic acid (NST0003, NST0004 and NST0005) was studied.
During the reaction, the HMG-CoA reductase uses NADPH as a reducing agent and 3-hydroxy-3-methylglutaryl coenzyme A (HMG-CoA) as a substrate. Mevalonic acid, which serves as a substrate for the following reaction in order to continue with the cholesterol synthesis, is obtained as a reaction product. The enzymatic reaction object of study is schematically shown as follows:
This in vitro assay is based on the spectrophotometric measurement of the decrease of absorbance at 340 nm, representing the oxidation of the NADPH by the catalytic subunit of the HMG-CoA reductase in the presence of the HMG-CoA reductase substrate. The assay was carried out in a 96-well plate, with a total reaction volume of 200 μl. The reaction buffer (50 mM KH2PO4, 1 M KCl, 2 mg/ml bovine serum albumin (BSA) and 5 mM DTT, at pH=7.3) was prepared at the time of carrying out the reaction and was maintained at 37° C.
Four independent assays were carried out. […] The concentrations of the reagents involved in the reaction mixture were the following: 0.2 mM HMG-CoA, 3 μU/reaction HMG-CoA reductase and 0.2 mM NADPH. After brief agitation, the reading of the plate was taken in a spectrophotometer at the conditions of 340 nm, 37° C., detecting the decrease of absorbance at 340 nm over time. The percentage of HMG-CoA reductase enzymatic activity with respect to the control was calculated. The IC50 was calculated with the data obtained by means of the Trimmed Spearman-Karber method (Version 1.5).

[1] = Crossing of the blood-brain barrier by PAMPA in vitro assay; format: in vitro ADME, pig; settings: acid forms, 100 μM, pH 7.4, 18 h
Experimental: To that end, the PAMPA (Parallel Artificial Membrane Permeation Assay) assay was used, which uses a sandwich system contemplating the crossing of compounds by means of passive diffusion, preventing active transport.
A mixture of commercial lipids derived from pig brain with a phospholipid composition very similar to that which forms the human BBB, called PBL (Porcine Polar Brain Lipid), was used to mimic the BBB, and it was stored at −20° C. dissolved in dodecane at 100 μg/ml in glass vials. The verapamil and theophylline were prepared at 10 mM in DMSO, whereas the acid forms of NST0003, NST0004 and NST0005 were prepared in water and were activated with 0.1 N NaOH at 4° C. for 12 h.
At the time of the assay, 1.5 ml of the compounds to be evaluated at 100 μM were prepared in a phosphate buffer at pH 7.4, maintaining a constant concentration of DMSO of 1%. 5 μl of PBL at 20 μg/ml were added in a 96-well filter plate, with a polyvinylidene fluoride (PVDF) membrane, with a pore size of […] (MAIPN4550, Millipore). After 2 minutes, 300 μl of the phosphate buffer used to dilute the compounds were added. This plate was considered the “acceptor” plate and was placed in the top part of the sandwich. 300 μl of the compounds were added at 100 μM on another 96-well plate which is assembled with the previous one (MATRNP550 of Millipore) (called “donor”) and in triplicate. […] After that time, 100 μl of the wells of the donor plates and of the acceptor plates were transferred to a special 96-well plate for ultraviolet (UV) reading. […] The plate was introduced in a spectrophotometer in which a scan was carried out in UV from 230 to 498 nm, with readings every 4 nm. From the data provided by the spectrophotometer the percentage of barrier crossing as well as the effective permeability (Pe) were calculated by applying the following formula:
[formula] […] [formula] • [Drug]acceptor=Absorbance of the acceptor well • [Drug]equilibrium=Absorbance of the mean of the basal wells/2 • VA=Volume of the acceptor well=0.3 cm^3 • VD=Volume of the donor well=0.3 cm^3 • Area=0.24 cm^2 • Time=64,000 s

Row | SMILES | IC50 (HMG-CoA reductase enzyme) | inhibition power of HMG-CoA reductase, times less than that of atorvastatin (HMG-CoA reductase enzyme) | crossing of the blood-brain barrier [1]
1 | CC(C)C(=O)O[C@H]1C[C@@H](C)C=C2C=C[C@H](C)[C@H](CC[C@@H]3C[C@@H](O)CC(=O)O3)[C@H]21 [NST0004] | 23.2 µM | 100 times | capable of crossing the blood-brain barrier
2 | CCC(=O)O[C@H]1C[C@@H](C)C=C2C=C[C@H](C)[C@H](CC[C@@H]3C[C@@H](O)CC(=O)O3)[C@H]21 [NST0003, (1S,3R,7S,8S,8aR)-1,2,3,7,8,8a-hexahydro-3,7-dimethyl-8-[2-[(2R,4R)-tetrahydro-4-hydroxy-6-oxo-2H-pyran-2-yl]ethyl-1-naphthalenyl propanoate] | 40.6 µM | 170 times | capable of crossing the blood-brain barrier
3 | C[C@H]1C=C2C=C[C@H](C)[C@H](CC[C@@H]3C[C@@H](O)CC(=O)O3)[C@H]2[C@@H](OC(=O)C(C)(C)C)C1 [NST0005] | 0.865 µM | 4 times | highest capacity to cross the BBB; also recorded: capable of crossing the blood-brain barrier
